The values below come from patent US10696693B2, “Fused imidazole derivatives as TGF-beta inhibitors” (Rigel Pharmaceuticals, Inc., priority 2014, dated 2020).

Where two headings read alike, the source gives them in different places.

One test relates to GDF8. The test is described as follows: AlphaScreen SureFire p-SMAD3 (Ser423/425) assay, GDF8-stimulated cells. Format: cell-based. Particulars: Mus musculus. The source says: (§1) The p-SMAD-3 (Ser423/425) SureFire® assay has been designed to measure the phosphorylation of endogenous cellular p-SMAD-3 (Ser423/425) in cell lysates and is a system for the screening of both modulators of receptor activation (e.g. agonists and antagonists) as well as agents acting intracellularly, such as small molecule inhibitors of upstream events. The assay will measure p-SMAD-3 (Ser423/425) activation by either cloned or endogenous receptors, and can be applied to primary cells.
(§2) 96-well Assay Protocol for 293FT and RMS13 adherent cells can be carried out manually or in high throughput with liquid handling robots.
(§3) The cells (80 μL of cells for 96 well plates) were plated in collagen coated tissue culture plates in RPMI or FreeStyle medium (Invitrogen) and incubated overnight. For manual analysis, 6 plates for GDF8, 6 plates for TGFβ, and optionally 6 plates for Alk5ca(ALK5 constitutively active) were used.
(§4) The compound dilution plates were prepared as follows: 12 μL of DMSO was transferred into first column of 96-well plate, and 16 μL of DMSO was transferred into columns 2-12 of the 96-well plate. 12 μL of compound solution was transferred into first column of the DMSO-containing 96-well plate. Three-fold dilution was performed up to column 10 of the DMSO-containing 96-well plate.
(§5) The plate containing cells were treated with compounds for about 10 minutes, and then ligand was added. GDF8 or TGFb was added to plates to stimulate. 293FL cells were stimulatedfor 90 minutes at 37° C.; and RMS13 cells were stimulated for 60 minutes at 37° C. The medium was then removed from the cells, and 1× Lysis Buffer (about 25 μL) was added and the plate was gently agitated on plate shaker for 5-10 minutes.
(§6) The lysate (5 μL) was then placed into 384-well shallow plates avoiding the generation of bubbles. To this, the Reaction Buffer+Activation Buffer+AlphaScreen® Acceptor beadsmixture (5 μL) was added. The plate was sealed with adhesive cover and shielded from light (e.g., with metal foil), and agitated gently on plate shaker for 2 hours at room temperature.
(§7) Dilution buffer+AlphaScreen® Donor beads (2 μL) was then added, and the plate was intubated on the plate shaker for an additional 1½ hours. After completion, the plate was read on Synergy-4 or Enspire plate reader, using AlphaScreen® pSMAD3® settings.
(§8) Representative results for inhibition of GDF8 (data=GDF pSMAD (MPC11) (μM)) and TGF-β (data=TGF-β pSMAD (MPC-11) (μM)) signaling are shown in Table 1(A=<0.05 μM, B=0.05−<0.1 μM, C=0.1−<1.0 μM, D=>1.0 μM): […]

In a further test the test system is TGF-β. In words: AlphaScreen SureFire p-SMAD3 (Ser423/425) assay, TGF-β-stimulated cells. Format: cell-based. Particulars: Mus musculus.
Excerpt: as §1, §2, §3, §4, §5, §6, §7, §8

Where [1] appears, read: MPC-11, p-SMAD3 (Ser423/425) AlphaScreen in cell lysate, MPC11, GDF8 stimulation, read-out: GDF8: inhibition of GDF8 signaling, GDF pSMAD (MPC11).
Where [2] appears, read: p-SMAD3 (Ser423/425) AlphaScreen in cell lysate, MPC-11, TGF-β stimulation, read-out: TGF-β: inhibition of TGF-β signaling, TGF-β pSMAD (MPC-11).
[3] abbreviates: MPC-11, read-out: GDF8: inhibition of GDF8 signaling, GDF pSMAD (MPC11), p-SMAD3 (Ser423/425) AlphaScreen in cell lysate, GDF8 stimulation.
Setting [4] is: MPC-11, read-out: TGF-β: inhibition of TGF-β signaling, TGF-β pSMAD (MPC-11), p-SMAD3 (Ser423/425) AlphaScreen in cell lysate, TGF-β stimulation.

`Cc1cc(F)ccc1-c1nc2n(c1-c1ccc3nccn3c1)CCC2` [Compound 55, 6-(2-(4-fluoro-2-methylphenyl)-6,7-dihydro-5H-pyrrolo[1,2-a]imidazol-3-yl)imidazo[1,2-a]pyridine]: the IC50 with GDF8 (setting [1]) was 100 to 1000 nM; in the test with TGF-β (setting [2]) it was over 1000 nM.

For `Cc1cc(F)c(Cl)cc1-c1nc2n(c1-c1ccc3ncnn3c1)CCC2` [Compound 56, 6-(2-(5-chloro-4-fluoro-2-methylphenyl)-6,7-dihydro-5H-pyrrolo[1,2-a]imidazol-3-yl)-[1,2,4]triazolo[1,5-a]pyridine], the IC50 in the test with GDF8 (setting [1]) and in the test with TGF-β (setting [2]) was 100 to 1000 nM each time.

Turning to `Cc1cc(F)c(Cl)cc1-c1nc2n(c1-c1ccc3nccn3c1)CCC2` [Compound 57, 6-(2-(5-chloro-4-fluoro-2-methylphenyl)-6,7-dihydro-5H-pyrrolo[1,2-a]imidazol-3-yl)imidazo[1,2-a]pyridine], the IC50 with GDF8 (setting [1]) and in the test with TGF-β (setting [2]) was 100 to 1000 nM in each case.

Consider `Cc1ccc(F)cc1-c1nc2n(c1-c1ccc3ncnn3c1)CCC2` [Compound 58, 6-(2-(5-fluoro-2-methylphenyl)-6,7-dihydro-5H-pyrrolo[1,2-a]imidazol-3-yl)-[1,2,4]triazolo[1,5-a]pyridine], for which the IC50 with GDF8 (setting [1]) and with TGF-β (setting [2]) was over 1000 nM in each case.

As for `Cc1ccc(F)cc1-c1nc2n(c1-c1ccc3nccn3c1)CCC2` [Compound 59, 6-(2-(5-fluoro-2-methylphenyl)-6,7-dihydro-5H-pyrrolo[1,2-a]imidazol-3-yl)imidazo[1,2-a]pyridine], the IC50 in the test with GDF8 (setting [1]) and in the test with TGF-β (setting [2]) was over 1000 nM in each case.

On to `N#Cc1cnc2ccc(-c3c(-c4ccc(F)c(Cl)c4)nc4n3CCC4)cn12` [Compound 61, 6-(2-(3-chloro-4-fluorophenyl)-6,7-dihydro-5H-pyrrolo[1,2-a]imidazol-3-yl)imidazo[1,2-a]pyridine-3-carbonitrile], for which the IC50 in the test with GDF8 (setting [1]) and in the test on TGF-β (setting [2]) was 100 to 1000 nM in each case.

Regarding `Cc1ccccc1-c1nc2n(c1-c1ccc3ncnn3c1)CCC2` [Compound 62, 6-(2-(2-methylphenyl)-6,7-dihydro-5H-pyrrolo[1,2-a]imidazol-3-yl)-[1,2,4]triazolo[1,5-a]pyridine], the IC50 in the test on GDF8 (setting [3]) and with TGF-β (setting [4]) was over 1000 nM throughout.

On to `Cc1ccccc1-c1nc2n(c1-c1ccc3nccn3c1)CCC2` [Compound 63, 6-(2-(2-methylphenyl)-6,7-dihydro-5H-pyrrolo[1,2-a]imidazol-3-yl)imidazo[1,2-a]pyridine], for which the IC50 with GDF8 (setting [1]) and in the test on TGF-β (setting [2]) was over 1000 nM in each case.

Regarding `Cc1cc(-c2nc3n(c2-c2ccc4ncnn4c2)CCC3)c(C)cc1F` [Compound 64, 6-(2-(4-fluoro-2,5-dimethylphenyl)-6,7-dihydro-5H-pyrrolo[1,2-a]imidazol-3-yl)-[1,2,4]triazolo[1,5-a]pyridine], the IC50 in the test with GDF8 (setting [1]) is 100 to 1000 nM; in the test on TGF-β (setting [2]), over 1000 nM.

For `Cc1cc(-c2nc3n(c2-c2ccc4nccn4c2)CCC3)c(C)cc1F` [Compound 65, 6-(2-(4-fluoro-2,5-dimethylphenyl)-6,7-dihydro-5H-pyrrolo[1,2-a]imidazol-3-yl)imidazo[1,2-a]pyridine], the IC50 in the test on GDF8 (setting [1]) was 100 to 1000 nM; with TGF-β (setting [2]) it was over 1000 nM.

Take `Cc1c(F)ccc(-c2nc3n(c2-c2ccc4ncnn4c2)CCC3)c1Cl` [Compound 66, 6-(2-(2-chloro-4-fluoro-3-methylphenyl)-6,7-dihydro-5H-pyrrolo[1,2-a]imidazol-3-yl)-[1,2,4]triazolo[1,5-a]pyridine]: the results for the IC50 in the test with GDF8 (setting [1]) and in the test on TGF-β (setting [2]) were 100 to 1000 nM and over 1000 nM, respectively.

As for `Cc1c(F)ccc(-c2nc3n(c2-c2ccc4nccn4c2)CCC3)c1Cl` [Compound 67, 6-(2-(2-chloro-4-fluoro-3-methylphenyl)-6,7-dihydro-5H-pyrrolo[1,2-a]imidazol-3-yl)imidazo[1,2-a]pyridine], the IC50 in the test on GDF8 (setting [1]) was 100 to 1000 nM; in the test with TGF-β (setting [2]), over 1000 nM.

As for `Cc1cc(-c2nc3n(c2-c2ccc4nccn4c2)CCC3)c(Cl)cc1F` [Compound 68, 6-(2-(2-chloro-4-fluoro-5-methylphenyl)-6,7-dihydro-5H-pyrrolo[1,2-a]imidazol-3-yl)imidazo[1,2-a]pyridine], the IC50 in the test with GDF8 (setting [1]) lay within 50 to 100 nM; in the test on TGF-β (setting [2]) it was 100 to 1000 nM.

As for `Cc1cc(-c2nc3n(c2-c2ccc4ncnn4c2)CCC3)c(Cl)cc1F` [Compound 69, 6-(2-(2-chloro-4-fluoro-5-methylphenyl)-6,7-dihydro-5H-pyrrolo[1,2-a]imidazol-3-yl)-[1,2,4]triazolo[1,5-a]pyridine], the IC50 was 50 to 100 nM in the test on GDF8 (setting [1]) and 100 to 1000 nM with TGF-β (setting [2]).

Turning to `O=S(=O)(Nc1cccc(-c2nc3n(c2-c2ccc4nccn4c2)CCC3)c1)c1ccccc1F` [Compound 70, 2-fluoro-N-(3-(3-(imidazo[1,2-a]pyridin-6-yl)-6,7-dihydro-5H-pyrrolo[1,2-a]imidazol-2-yl)phenyl)benzenesulfonamide], the IC50 with GDF8 (setting [1]) and with TGF-β (setting [2]) was over 1000 nM in each case.

Turning to `Fc1ccc(-c2nc3n(c2-c2ccc4ncnn4c2)CC2(CCCC2)C3)cc1` [Compound 71, 3′-([1,2,4]triazolo[1,5-a]pyridin-6-yl)-2′-(4-fluorophenyl)-5′H,7′H-spiro[cyclopentane-1,6′-pyrrolo[1,2-a]imidazole]], the IC50 with GDF8 (setting [3]) and in the test with TGF-β (setting [4]) was over 1000 nM throughout.

Regarding `Fc1ccc(-c2nc3n(c2-c2ccc4nccn4c2)CC2(CCCC2)C3)cc1` [Compound 72, 2′-(4-fluorophenyl)-3′-(imidazo[1,2-a]pyridin-6-yl)-5′H,7′H-spiro[cyclopentane-1,6′-pyrrolo[1,2-a]imidazole]], the IC50 in the test with GDF8 (setting [1]) and in the test with TGF-β (setting [2]) was over 1000 nM throughout.

Take `Cc1c(F)ccc(-c2nc3n(c2-c2ccc4ncnn4c2)CCC3)c1C` [Compound 73, 6-(2-(4-fluoro-2,3-dimethylphenyl)-6,7-dihydro-5H-pyrrolo[1,2-a]imidazol-3-yl)-[1,2,4]triazolo[1,5-a]pyridine]: the IC50 with GDF8 (setting [3]) is 100 to 1000 nM; in the test with TGF-β (setting [4]), over 1000 nM.

On to `Cc1c(F)ccc(-c2nc3n(c2-c2ccc4nccn4c2)CCC3)c1C` [Compound 74, 6-(2-(4-fluoro-2,3-dimethylphenyl)-6,7-dihydro-5H-pyrrolo[1,2-a]imidazol-3-yl)imidazo[1,2-a]pyridine], for which the IC50 in the test on GDF8 (setting [1]) was 100 to 1000 nM; in the test with TGF-β (setting [2]), over 1000 nM.

Take `OCC1CCC2(CC1)Cc1nc(-c3ccc(F)cc3)c(-c3ccc4ncnn4c3)n1C2` (stereo not shown) [Compound 75, (3′-([1,2,4]triazolo[1,5-a]pyridin-6-yl)-2′-(4-fluorophenyl)-5′H,7′H-spiro[cyclohexane-1,6′-pyrrolo[1,2-a]imidazol]-4-yl)methanol]: the IC50 with GDF8 (setting [3]) and with TGF-β (setting [4]) was over 1000 nM each time.

For `O=C(O)C1CCC2(CC1)Cc1nc(-c3ccc(F)cc3)c(-c3ccc4ncnn4c3)n1C2` (stereo not shown) [Compound 76, 3′-([1,2,4]triazolo[1,5-a]pyridin-6-yl)-2′-(4-fluorophenyl)-5′H,7′H-spiro[cyclohexane-1,6′-pyrrolo[1,2-a]imidazole]-4-carboxylic acid], the IC50 in the test with GDF8 (setting [3]) and with TGF-β (setting [4]) was over 1000 nM throughout.

With `CCOC(=O)C1CCC2(CC1)Cc1nc(-c3ccc(F)cc3)c(-c3ccc4ncnn4c3)n1C2` (stereo not shown) [Compound 77, ethyl 3′-([1,2,4]triazolo[1,5-a]pyridin-6-yl)-2′-(4-fluorophenyl)-5′H,7′H-spiro[cyclohexane-1,6′-pyrrolo[1,2-a]imidazole]-4-carboxylate], the IC50 in the test on GDF8 (setting [3]) and in the test on TGF-β (setting [4]) was over 1000 nM throughout.

Turning to `CNC(=O)C1CCC2(CC1)Cc1nc(-c3ccc(F)cc3)c(-c3ccc4ncnn4c3)n1C2` (stereo not shown) [Compound 78, 3′-([1,2,4]triazolo[1,5-a]pyridin-6-yl)-2′-(4-fluorophenyl)-N-methyl-5′H,7′H-spiro[cyclohexane-1,6′-pyrrolo[1,2-a]imidazole]-4-carboxamide], the IC50 in the test with GDF8 (setting [1]) and in the test with TGF-β (setting [2]) was over 1000 nM in each case.
